From ChEMBL document CHEMBL1201862, “PubChem BioAssay data set” (2004)
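Growth conditions: 96-well plates. Treatment: test compound, 48 hours, 5 concentrations. Analysis: linear interpolation between bracketing concentrations; unreached endpoints set to highest concentration. GI50: concentration for 50% inhibition of growth.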 Activity calls are given as the source filed them. Cut-off read from the data, not from the text of the source: active = GI50 up to about 1.1 µM and inactive = higher.

Assays:
Test in all cases: DTP human tumour cell line panel, 48 h
[1] = test system: SK-OV-3
[2] = test system: ACHN
[3] = test system: SN12C
[4] = test system: HT-29
[5] = test system: U-251
[6] = test system: SW-620
[7] = test system: MDA-MB-231
[8] = test system: T47D
[9] = test system: UACC-257
[10] = test system: SK-MEL-5
[11] = test system: Malme-3M
[12] = test system: RXF 393
[13] = test system: HOP-92
[14] = test system: NCI-H226
[15] = test system: RPMI-8226
[16] = test system: SNB-19
[17] = test system: UO-31
[18] = test system: SF-539
[19] = test system: MCF7
[20] = test system: NCI-H522

Measured: GI50

O=C(Cn1c2ccc(Br)cc2c2nc3ccccc3nc21)NCc1ccccc1
inactive: [1] 44.3 µM | [2] 13.4 µM | [3] > 100 µM | [4] > 100 µM | [5] 15 µM | [6] > 100 µM | [7] 35.4 µM | [8] 4.1 µM | [9] > 100 µM | [10] > 100 µM | [11] 41.7 µM | [12] 12 µM | [13] 2.01 µM | [14] 78.7 µM | [15] > 100 µM | [16] 22.3 µM | [17] > 100 µM

Cn1c2c(c3ccccc31)CC(=S)N1CCCC(CC2O)C1 (stereo unspecified)
inactive: [1] > 100 µM | [2] > 100 µM | [3] > 100 µM | [4] > 100 µM | [5] > 100 µM | [6] > 100 µM | [7] > 100 µM | [8] > 100 µM | [9] > 100 µM | [18] > 100 µM | [19] > 100 µM | [10] > 100 µM | [11] > 100 µM | [13] > 100 µM | [14] > 100 µM | [20] > 100 µM | [15] > 100 µM | [16] > 100 µM | [17] 45.8 µM

Cc1nc2nc3c(ncn3COCCO)c(O)n2c1C(c1ccccc1)(c1ccccc1)c1ccccc1
inactive: [1] 15.9 µM | [2] 18 µM | [3] 16.5 µM | [4] 11.7 µM | [5] 14.1 µM | [6] 19.5 µM | [7] 14.5 µM | [8] 9.27 µM | [9] 14.1 µM | [18] 6.25 µM | [19] 10.2 µM | [10] 15.4 µM | [11] 18.3 µM | [12] 12.8 µM | [13] 16.7 µM | [20] 12.6 µM | [15] 12 µM | [16] 14.8 µM | [17] 30.3 µM

Fc1cc(C2=Nn3c(CNc4ccc(Cl)cc4)nnc3S/C2=C\c2ccc(-c3ccc(Cl)cc3)o2)c(Cl)cc1Cl
inactive: [2] 34.9 µM | [3] 33.3 µM | [4] 32.8 µM | [5] 18.6 µM | [6] > 100 µM | [7] 10.2 µM | [8] 41.7 µM | [9] > 100 µM | [19] 38.8 µM | [10] 26.1 µM | [11] 17.3 µM | [12] 13.4 µM | [14] 26.5 µM | [20] 38 µM | [15] 23.2 µM | [16] 44 µM | [17] 11.8 µM

Oc1cn(-c2ccc(Cl)cc2)nc1-c1nnc(Nc2ccccc2)o1
inactive: [1] 24.3 µM | [2] 25.6 µM | [3] 16.1 µM | [4] 9.55 µM | [5] 17.5 µM | [6] 19.1 µM | [7] 12.4 µM | [8] 23 µM | [9] 21.3 µM | [18] 15.3 µM | [19] 16.9 µM | [10] 11.4 µM | [11] 25.2 µM | [12] 16 µM | [14] 8.39 µM | [20] 17.3 µM | [16] 20.9 µM | [17] 14.3 µM

CSC[C@H](NC(=O)COc1cccc2cnccc12)C(=O)NC(Cc1ccccc1)C(O)C(=O)N1CSC[C@H]1C(=O)NC(C)(C)C (stereo partly specified)
inactive: [1] > 100 µM | [2] 24.4 µM | [3] 84.7 µM | [4] 33.7 µM | [5] 95.3 µM | [6] > 100 µM | [7] > 100 µM | [8] 36.6 µM | [9] 29.2 µM | [18] 11 µM | [19] 68.2 µM | [10] > 10 µM | [11] > 100 µM | [12] 29.2 µM | [14] > 100 µM | [20] > 100 µM | [15] 23.6 µM | [16] > 100 µM | [17] 86.3 µM

CCOc1ccc(Nc2nc(N)nc(N)c2N)cc1
inactive: [1] > 100 µM | [2] 38.7 µM | [3] > 10 µM | [4] 17.8 µM | [5] 24.1 µM | [6] 33.1 µM | [7] 31.8 µM | [8] 21.4 µM | [9] > 100 µM | [18] 21.7 µM | [19] 18.8 µM | [10] 61.5 µM | [11] 12.6 µM | [13] 50.9 µM | [14] 42.2 µM | [20] 26 µM | [15] 12.1 µM | [16] 25.2 µM | [17] 11 µM

COc1ccc(-c2nc(-c3cnccn3)n(C/C=C/c3ccccc3)n2)cc1
inactive: [1] 17.9 µM | [3] > 100 µM | [4] > 100 µM | [5] 46.7 µM | [6] > 100 µM | [7] 71.1 µM | [8] 48.2 µM | [9] > 100 µM | [18] 26.5 µM | [19] > 100 µM | [10] 44.4 µM | [13] 11.5 µM | [20] 32.8 µM | [15] > 100 µM | [16] 37.2 µM | [17] 49.2 µM

CC(C)(C)c1ccc(C(O)(c2ccc(C(C)(C)C)cc2)c2ccc(C(C)(C)C)cc2)cc1
inactive: [1] > 100 µM | [2] > 100 µM | [3] > 100 µM | [4] > 100 µM | [5] > 100 µM | [6] > 100 µM | [7] > 100 µM | [8] > 100 µM | [18] > 100 µM | [19] > 100 µM | [10] > 100 µM | [11] 6.92 µM | [14] > 100 µM | [20] > 100 µM | [15] 52.2 µM | [16] > 100 µM | [17] > 100 µM

C=CCCCN1C(=O)C2C3c4ccccc4C(C=O)(c4ccccc43)C2C1=O (stereo unspecified)
inactive: [1] 18.2 µM | [2] 13.6 µM | [3] 7.93 µM | [4] 10 µM | [5] 11.2 µM | [6] 13 µM | [7] 9.42 µM | [8] 8.91 µM | [9] 13 µM | [19] 12.3 µM | [10] 11.3 µM | [11] 13.6 µM | [13] 11.3 µM | [20] 8.57 µM | [15] 6.84 µM | [16] 13.1 µM | [17] 10.7 µM

Cn1c2ccccc2n2c(=O)c3cccnc3c(C#N)c12
inactive: [1] > 100 µM | [2] 31.1 µM | [3] 25.5 µM | [4] 63 µM | [5] > 100 µM | [6] 19.6 µM | [7] > 100 µM | [8] > 100 µM | [9] > 100 µM | [18] 66.4 µM | [10] 9.51 µM | [11] > 100 µM | [12] > 100 µM | [13] > 100 µM | [14] 4.42 µM | [20] 14.7 µM | [15] > 100 µM

Cn1c2ccccc2n2c3ncccc3c(=O)cc12
inactive: [1] > 100 µM | [2] 27 µM | [3] 44.7 µM | [4] 38.9 µM | [5] 40.4 µM | [6] 50 µM | [7] 96.8 µM | [8] 55.7 µM | [9] 75 µM | [18] 45.9 µM | [10] 32.9 µM | [11] 45 µM | [12] 62.8 µM | [13] 54.5 µM | [14] 44.3 µM | [20] 31.3 µM | [15] 48.1 µM | [16] 35.2 µM | [17] 26.3 µM

O=C1CSC(c2ccccc2[N+](=O)[O-])N1c1ccc(-n2c(-c3ccccc3)nc3ccccc3c2=O)cc1 (stereo unspecified)
inactive: [1] 12.5 µM | [2] 61 µM | [3] > 100 µM | [4] 54.3 µM | [5] 17.7 µM | [6] 64.3 µM | [7] 46.3 µM | [8] 23.7 µM | [9] > 100 µM | [18] 59 µM | [19] 32.4 µM | [10] 70.5 µM | [11] 39.8 µM | [13] 27 µM | [14] 28.4 µM | [20] 22.4 µM | [15] > 100 µM | [16] 32.7 µM | [17] 13.9 µM

COCC[N+](CCNC(=O)c1cccc2c(N)c3cccc(C)c3nc12)(CCOC)Cc1ccc([N+](=O)[O-])cc1
inactive: [2] 32.4 µM | [3] 32.9 µM | [4] 18.8 µM | [5] 19.8 µM | [6] 21.1 µM | [7] 28.1 µM | [8] 18.1 µM | [9] 16.9 µM | [18] 17.3 µM | [19] 19.4 µM | [10] 4.53 µM | [13] 29 µM | [20] 5.37 µM | [15] 5.6 µM | [16] 40.4 µM | [17] 63 µM

O=C1CC(C(CC(=O)c2ccccc2)c2ccccc2)C(=O)c2ccccc2N1 (stereo unspecified)
inactive: [1] > 100 µM | [2] 45.3 µM | [3] 35.7 µM | [4] 32.3 µM | [5] 84.7 µM | [6] 68.7 µM | [7] 49 µM | [8] 20.7 µM | [9] 88.5 µM | [18] 38.3 µM | [19] 25.9 µM | [10] 24.2 µM | [11] 28.4 µM | [14] 24.4 µM | [15] 22.1 µM | [16] 51.5 µM | [17] 14.2 µM
